“Also recorded” adds a separate entry of the source.
What was measured:
[1] = tested on: diet-induced obesity (DIO) mouse model; assay: 56-day DIO mouse weight loss study comparing DA and DB (Example 3); assay type: in vivo; settings: DIO mice
Excerpt: The 56-day study determined the behavioral effects of bitter taste receptor agonists denatonium acetate (DA) compared to denatonium benzoate (DB) in a diet-induced obesity (DIO) mouse model. […] The study duration was a 3-5 day acclimation period+[…] study period and 2-3 day testing period after study. […] The mice were C57BL/6NTad mice at least 12 weeks in age and 15 mice per group (low dose DA, higher dose DA, high dose DB and control). […] Metabolic biomarkers (blood glucose, blood insulin, blood HbA1c) were measured at the beginning and end of the study. The DA, DB or distilled water control was administered per ostium gavage (PO) at a volume of 5 mL/kg body weight.

male Sprague Dawley rats = assay: 24 hour food intake study in rats comparing DA to DB (Example 4); assay type: in vivo, rat; settings: gavage, DA high dose 23.1 mg/kg
Procedure: This example provides a 24 hour study comparing DA to DB is rats (male Sprague Dawley, Charles River) over a 24 hour period. The […] of 15 rats each were vehicle controlled distilled water gavage QID, DB at a dose of 26.8 mg/kg gavage QID, DA low dose 2.9 mg/kg gavage QD, and DA high dose 23.1 mg/kg gavage QD. Food intake at 2 hr, 4 hr, 6 hr, 8 hr and 24 hr after administration was measured.

male SD rats = assay: Single oral dose food intake study, 24-hour observational period (Example 6, first in vivo study); design: species or system rat
Procedure: This example compares efficacy of DA versus DB in food inhibition and body weight control. As a background, according to Avau et al., Sci. Rep. […] In our first in vivo study, 45 male SD rats (purchased from Envigo at 8-10 weeks of age) were divided into three groups (15 in each group), which were administered a single oral dose of vehicle (distilled water), 26.8 mg/kg of DB, or 23.1 mg/kg of DA respectively, with a 24-hour observational period, to compare the efficacy of DB versus DA in reducing food intake. Table 4. Mean cumulative food intake during 24-h observational period

male C57BL/6N DIO mice = assay: 56-day BID treatment, food consumption and body weight in DIO mice (Example 6, second in vivo study); design: species or system mouse
Procedure: In a second in vivo study, 45 male C57BL/6N DIO mice (purchased from Envigo at 18 weeks of age, fed with high-fat diet) were divided into three groups (15 in each group), which were orally administered vehicle (distilled water), 26.8 mg/kg of DB, or 23.1 mg/kg of DA respectively, twice daily (BID), with a 56-day treatment period to compare the efficacy of DB versus DA in food intake reduction and body weight control. Briefly, once weekly, the food weight for each cage was recorded at 0 hour and then 24 hours later, permitting calculation of food consumption for that 24-hour interval. In addition, starting from Day 0, the mice were weighed three times weekly (every 2-3 days).

in vivo = settings: both, Sprague Dawley, rat, po
Procedure: (§1) The drugs were administered to Sprague Dawley rats with a 14-day observational period. Twenty-four Male Sprague Dawley (SD) rats and 24 female SD rats were purchased from Envigo at 8-10 weeks of age. The DA group had four dose levels (120, 360, 1000, and 2000 mg/kg, single administration by oral gavage), 3 rats per sex, 6 animals in total per dose level; and the DB group: four dose levels (120, 360, 1000, and 2000 mg/kg, single administration by oral gavage), 3 rats per sex, 6 animals in total per dose level. The estimated median lethal dose (LD50) was determined by a nonlinear regression [model: Y=100/(1+10^(LogEC50-X)), Hill slope=1.0) to calculate LD50.

Sprague Dawley rats = assay: in vivo; settings: rat, po
Procedure: as §1

SMILES: CC(=O)[O-].CC[N+](CC)(CC(=O)Nc1c(C)cccc1C)Cc1ccccc1 [DA, Denatonium acetate]
- body weights at the indicated days (FIG. 1) ([1]; 56 day study, DA 23.1 mg/kg BID PO): lowest average body weights
- body weight changes of the 56 day study (FIG. 2) ([1]; DA 23.1 mg/kg BID PO compared with DB 26.8 mg/kg BID): lowest increase in body weight; also recorded: weight loss improvement of higher dose DA over higher dose DB
- serum insulin at the end of the 56 day study (FIG. 3) ([1]; DA 23.1 mg/kg BID PO, compared with pre-treatment and vehicle): close to baseline value
- cumulative food consumption over 24 hours (FIG. 5) (male Sprague Dawley rats): largest impact
- food intake reduction, DA compared with DB (male SD rats; 23.1 mg/kg DA vs 26.8 mg/kg DB): a greater food intake reduction
- Mean cumulative food intake 0-2 h (male SD rats; single oral dose (DA 23.1 mg/kg, DB 26.8 mg/kg), 0-2 h, N = 15): 4.7 gram
- Mean cumulative food intake 0-4 h (male SD rats; single oral dose (DA 23.1 mg/kg, DB 26.8 mg/kg), 0-4 h, N = 15): 7.3 gram
- Mean cumulative food intake 0-6 h (male SD rats; single oral dose (DA 23.1 mg/kg, DB 26.8 mg/kg), 0-6 h, N = 15): 10.3 gram
- Mean cumulative food intake 0-8 h (male SD rats; single oral dose (DA 23.1 mg/kg, DB 26.8 mg/kg), 0-8 h, N = 15): 12.5 gram
- Mean cumulative food intake 0-24 h (male SD rats; single oral dose (DA 23.1 mg/kg, DB 26.8 mg/kg), 0-24 h, N = 15): 20.2 gram
- cumulative food intake as compared with vehicle (male SD rats; single oral dose, all indicated time intervals): reduced cumulative food intake during all the indicated time intervals as compared with vehicle
- body weight gain as compared to vehicle treatment (male C57BL/6N DIO mice; DIO mice on high-fat diet, 26.8 mg/kg DB or 23.1 mg/kg DA BID): less body weight gain as compared to vehicle treatment
- Mean food consumption per animal for 24-h interval, Day 0 (male C57BL/6N DIO mice; DIO mice, BID oral (DA 23.1 mg/kg, DB 26.8 mg/kg), Day 0): 2.2 gram
- Mean food consumption per animal for 24-h interval, Day 7 (male C57BL/6N DIO mice; DIO mice, BID oral (DA 23.1 mg/kg, DB 26.8 mg/kg), Day 7): 1.7 gram
- Mean food consumption per animal for 24-h interval, Day 14 (male C57BL/6N DIO mice; DIO mice, BID oral (DA 23.1 mg/kg, DB 26.8 mg/kg), Day 14): 1.9 gram
- Mean food consumption per animal for 24-h interval, Day 21 (male C57BL/6N DIO mice; DIO mice, BID oral (DA 23.1 mg/kg, DB 26.8 mg/kg), Day 21): 2.3 gram
- Mean food consumption per animal for 24-h interval, Day 28 (male C57BL/6N DIO mice; DIO mice, BID oral (DA 23.1 mg/kg, DB 26.8 mg/kg), Day 28): 2.0 gram
- Mean food consumption per animal for 24-h interval, Day 35 (male C57BL/6N DIO mice; DIO mice, BID oral (DA 23.1 mg/kg, DB 26.8 mg/kg), Day 35): 2.4 gram
- Mean food consumption per animal for 24-h interval, Day 42 (male C57BL/6N DIO mice; DIO mice, BID oral (DA 23.1 mg/kg, DB 26.8 mg/kg), Day 42): 2.0 gram
- Mean food consumption per animal for 24-h interval, Day 49 (male C57BL/6N DIO mice; DIO mice, BID oral (DA 23.1 mg/kg, DB 26.8 mg/kg), Day 49): 2.3 gram
- Mean food consumption per animal for 24-h interval, Day 56 (male C57BL/6N DIO mice; DIO mice, BID oral (DA 23.1 mg/kg, DB 26.8 mg/kg), Day 56): 1.7 gram
- Mean normalized body weight (% of baseline), study day 0 (male C57BL/6N DIO mice; DIO mice, BID oral (DA 23.1 mg/kg, DB 26.8 mg/kg), day 0): 100.0 % of baseline
- Mean normalized body weight (% of baseline), study day 4 (male C57BL/6N DIO mice; DIO mice, BID oral (DA 23.1 mg/kg, DB 26.8 mg/kg), day 4): 101.1 % of baseline
- Mean normalized body weight (% of baseline), study day 7 (male C57BL/6N DIO mice; DIO mice, BID oral (DA 23.1 mg/kg, DB 26.8 mg/kg), day 7): 100.6 % of baseline
- Mean normalized body weight (% of baseline), study day 9 (male C57BL/6N DIO mice; DIO mice, BID oral (DA 23.1 mg/kg, DB 26.8 mg/kg), day 9): 99.5 % of baseline
- Mean normalized body weight (% of baseline), study day 11 (male C57BL/6N DIO mice; DIO mice, BID oral (DA 23.1 mg/kg, DB 26.8 mg/kg), day 11): 98.8 % of baseline
- Mean normalized body weight (% of baseline), study day 14 (male C57BL/6N DIO mice; DIO mice, BID oral (DA 23.1 mg/kg, DB 26.8 mg/kg), day 14): 99.6 % of baseline
- Mean normalized body weight (% of baseline), study day 16 (male C57BL/6N DIO mice; DIO mice, BID oral (DA 23.1 mg/kg, DB 26.8 mg/kg), day 16): 98.5 % of baseline
- Mean normalized body weight (% of baseline), study day 18 (male C57BL/6N DIO mice; DIO mice, BID oral (DA 23.1 mg/kg, DB 26.8 mg/kg), day 18): 98.4 % of baseline
- Mean normalized body weight (% of baseline), study day 21 (male C57BL/6N DIO mice; DIO mice, BID oral (DA 23.1 mg/kg, DB 26.8 mg/kg), day 21): 99.9 % of baseline
- Mean normalized body weight (% of baseline), study day 23 (male C57BL/6N DIO mice; DIO mice, BID oral (DA 23.1 mg/kg, DB 26.8 mg/kg), day 23): 99.9 % of baseline
- Mean normalized body weight (% of baseline), study day 25 (male C57BL/6N DIO mice; DIO mice, BID oral (DA 23.1 mg/kg, DB 26.8 mg/kg), day 25): 100.0 % of baseline
- Mean normalized body weight (% of baseline), study day 28 (male C57BL/6N DIO mice; DIO mice, BID oral (DA 23.1 mg/kg, DB 26.8 mg/kg), day 28): 100.0 % of baseline
- Mean normalized body weight (% of baseline), study day 30 (male C57BL/6N DIO mice; DIO mice, BID oral (DA 23.1 mg/kg, DB 26.8 mg/kg), day 30): 100.0 % of baseline
- Mean normalized body weight (% of baseline), study day 32 (male C57BL/6N DIO mice; DIO mice, BID oral (DA 23.1 mg/kg, DB 26.8 mg/kg), day 32): 102.0 % of baseline
- Mean normalized body weight (% of baseline), study day 34 (male C57BL/6N DIO mice; DIO mice, BID oral (DA 23.1 mg/kg, DB 26.8 mg/kg), day 34): 101.9 % of baseline
- Mean normalized body weight (% of baseline), study day 36 (male C57BL/6N DIO mice; DIO mice, BID oral (DA 23.1 mg/kg, DB 26.8 mg/kg), day 36): 101.5 % of baseline
- Mean normalized body weight (% of baseline), study day 39 (male C57BL/6N DIO mice; DIO mice, BID oral (DA 23.1 mg/kg, DB 26.8 mg/kg), day 39): 102.6 % of baseline
- Mean normalized body weight (% of baseline), study day 41 (male C57BL/6N DIO mice; DIO mice, BID oral (DA 23.1 mg/kg, DB 26.8 mg/kg), day 41): 103.1 % of baseline
- Mean normalized body weight (% of baseline), study day 46 (male C57BL/6N DIO mice; DIO mice, BID oral (DA 23.1 mg/kg, DB 26.8 mg/kg), day 46): 103.9 % of baseline
- Mean normalized body weight (% of baseline), study day 49 (male C57BL/6N DIO mice; DIO mice, BID oral (DA 23.1 mg/kg, DB 26.8 mg/kg), day 49): 104.7 % of baseline
- Mean normalized body weight (% of baseline), study day 51 (male C57BL/6N DIO mice; DIO mice, BID oral (DA 23.1 mg/kg, DB 26.8 mg/kg), day 51): 104.9 % of baseline
- Mean normalized body weight (% of baseline), study day 53 (male C57BL/6N DIO mice; DIO mice, BID oral (DA 23.1 mg/kg, DB 26.8 mg/kg), day 53): 105.2 % of baseline
- Mean normalized body weight (% of baseline), study day 56 (male C57BL/6N DIO mice; DIO mice, BID oral (DA 23.1 mg/kg, DB 26.8 mg/kg), day 56): 106.7 % of baseline
- food consumption compared to vehicle-dosed mice (male C57BL/6N DIO mice; DIO mice, BID oral, 56-day treatment): nominally decreased food consumption compared to vehicle-dosed mice
- body weight gain, DA compared with DB (male C57BL/6N DIO mice; DIO mice, Day 34 to Day 56): body weight gain was less
- food consumption, DA compared with DB (male C57BL/6N DIO mice; DIO mice, all indicated measurement days except for Day 42): food consumption was less
- LD50 at 14 day (in vivo): 945 mg/kg
- MTD at 14 day (in vivo): 360 mg/kg
- Mortality rate (Sprague Dawley rats; both, 120 mg/kg, 14 day): 0%
- Mortality rate (Sprague Dawley rats; both, 360 mg/kg, 14 day): 0%
- Mortality rate (Sprague Dawley rats; both, 1000 mg/kg, 14 day): 50%
- Mortality rate (Sprague Dawley rats; both, 2000 mg/kg, 14 day): 100%
- Estimated LD50 (Sprague Dawley rats; both, 14 day): 945 mg/kg
- No. of animals died within 24 h post dosing (Sprague Dawley rats; female, 120 mg/kg): 0
- No. of animals died within 24 h post dosing (Sprague Dawley rats; female, 360 mg/kg): 0
- No. of animals died within 24 h post dosing (Sprague Dawley rats; female, 1000 mg/kg): 3
- No. of animals died within 24 h post dosing (Sprague Dawley rats; female, 2000 mg/kg): 3
- No. of animals died within 24 h post dosing (Sprague Dawley rats; male, 120 mg/kg): 0
- No. of animals died within 24 h post dosing (Sprague Dawley rats; male, 360 mg/kg): 0
- No. of animals died within 24 h post dosing (Sprague Dawley rats; male, 1000 mg/kg): 0
- No. of animals died within 24 h post dosing (Sprague Dawley rats; male, 2000 mg/kg): 3

From patent US20220087960A1, “Oral Pharmaceutical Immediate Release Composition” (Aardvark Therapeutics Inc., priority 2020, published 2022)
